Reference: patent publication US12435044B2, “Pyridazinone herbicides and pyridazinone intermediates used to prepare a herbicide” (FMC Corporation, priority 2018, dated 2025)

How the values were obtained:
Assay type in all cases: in vivo
corn (Zea mays) = experiment: Test A postemergence greenhouse test
Summary of the method: (§1)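 Seeds were planted in a loam soil and sand blend and sprayed preemergence on the soil, while pot-grown plants 2 to 10 cm tall at the one- to two-leaf stage were treated postemergence. Plants then stayed in the greenhouse about 10 d before visual scoring of injury, 0–100.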

[1] = test system: wheat (Triticum aestivum); experiment: Test A postemergence greenhouse test
Summary of the method: as §1

[2] = test system: foxtail, green (Setaria viridis); experiment: Test A pre-/postemergence greenhouse test
Summary of the method: as §1

[3] = test system: chamomile (scentless chamomile, Matricaria inodora); experiment: Test D postemergence controlled growth environment test
Source text: Seeds of plant species selected from blackgrass (Alopecurus myosuroides), galium (catchweed bedstraw, Galium aparine), kochia (Kochia scoparia), oilseed rape (Brassica napus), barley, spring (Hordeum vulgare), wheat, spring (Triticum aestivum), oat, wild (Avena fatua), barley, winter (Hordeum vulgare) and wheat, winter (Triticum aestivum) were planted into a silt loam soil and treated preemergence with test chemicals formulated in a non-phytotoxic solvent mixture which included a surfactant.
At the same time, plants selected from these crop and weed species and also bluegrass (annual bluegrass, Poa annua), canarygrass (littleseed canarygrass, Phalaris minor), chickweed (common chickweed, Stellaria media), bromegrass, downy (downy bromegrass, Bromus tectorum), field poppy (Papaver rhoeas), field violet (Viola arvensis), foxtail, green (Setaria viridis), deadnettle (henbit deadnettle, Lamium amplexicaule), ryegrass, Italian (Lolium multiflorum), lambsquarters (Chenopodium album), pigweed (Amaranthus retroflexus), chamomile (scentless chamomile, Matricaria inodora), Russian thistle (Salsola kali), speedwell (bird's-eye speedwell, Veronica persica), buckwheat, wild (Polygonum convolvulus), mustard, wild (Sinapis arvensis), radish, wild (Raphanus raphanistrum), windgrass (Apera spica-venti), geranium, cutleaf (Geranium dissectum) and Canada thistle (Cirsium arvense) were planted in pots containing Redi-Earth® planting medium (Scotts Company, 14111 Scottslawn Road, Marysville, Ohio 43041) comprising spaghnum peat moss, vermiculite, wetting agent and starter nutrients and treated with postemergence applications of the test chemicals formulated in the same manner. Plants ranged in height from 2 to 18 cm (1- to 4-leaf stage). Treated plants and controls were maintained in a controlled growth environment for 14 to 21 d after which time all species were compared to controls and visually evaluated. Plant response ratings, summarized in Table D, are based on a scale of 0 to 100 where 0 is no effect and 100 is complete control. A dash (-) response means no test result.

[4] = test system: foxtail, giant (Setaria faberii); experiment: Test A pre-/postemergence greenhouse test
Summary of the method: as §1

[5] = test system: water seeded rice seedlings (Rice, W. S. Jap, Oryza sativa cv. ‘Japonica-M202’ or Rice, W. S. Ind, ‘Indica’); experiment: Test F flooded paddy test; conditions: Flood, after 21 d
Source text: (§2) Three plastic pots (ca. 16-cm diameter) per rate were partially filled with sterilized Tama silt loam soil comprising a 35:50:15 ratio of sand, silt and clay and 2.6% organic matter. Separate plantings for each of the three pots were as follows. Seeds from the U.S. of monochoria (Monochoria vaginalis), sedge, umbrella (small-flower umbrella sedge, Cyperus difformis) and redstem (purple redstem, Ammannia coccinea), were planted into one 16-cm pot for each rate. Seeds from the U.S. of rice flatsedge (Cyperus iria), sprangletop, Brdd. (bearded sprangletop, Leptochloa fascicularis), one stand of 9 or 10 water seeded rice seedlings (Rice, W. S. Jap, Oryza sativa cv. ‘Japonica-M202’ or Rice, W. S. Ind, ‘Indica’), and two stands of 3 or 4 transplanted rice seedlings (Oryza sativa cv. ‘Japonica-M202’) were planted into one 16-cm pot for each rate. Seeds from the U.S. of barnyardgrass (Echinochloa crus-galli), and late watergrass (Echinochloa oryzicola) were planted into one 16-cm pot for each rate.
(§3) Plantings were sequential so that crop and weed species were at the 2.0 to 2.5-leaf stage at time of treatment.
(§4) Potted plants were grown in a greenhouse with day/night temperature settings of 30/27° C., and supplemental balanced lighting was provided to maintain a 16-hour photoperiod. Test pots were maintained in the greenhouse until test completion.
(§5) At time of treatment, test pots were flooded to 3 cm above the soil surface, treated by application of test compounds directly to the paddy water, and then maintained at that water depth for the duration of the test. Effects of treatments on rice and weeds were visually evaluated by comparison to untreated controls after 21 d. Plant response ratings, summarized in Table F, are based on a scale of 0 to 100 where 0 is no effect and 100 is complete control. A dash (-) response means no test result.

[6] = test system: barnyardgrass (Echinochloa crus-galli); experiment: Test F flooded paddy test; conditions: Flood, after 21 d
Source text: as §2, §3, §4, §5

[7] = test system: monochoria (Monochoria vaginalis); experiment: Test F flooded paddy test; conditions: Flood, after 21 d
Source text: as §2, §3, §4, §5

[8] = test system: late watergrass (Echinochloa oryzicola); experiment: Test F flooded paddy test; conditions: Flood, after 21 d
Source text: as §2, §3, §4, §5

[9] = test system: transplanted rice seedlings (Oryza sativa cv. ‘Japonica-M202’); experiment: Test F flooded paddy test; conditions: Flood, after 21 d
Source text: as §2, §3, §4, §5

SMILES | Plant response rating (0 to 100 scale) (corn (Zea mays); 31 g ai/ha) | Plant response rating (0 to 100 scale) (corn (Zea mays); 125 g ai/ha) | Plant response rating (0 to 100 scale) ([1]; 31 g ai/ha) | Plant response rating (0 to 100 scale) ([1]; 125 g ai/ha) | Plant response rating (0 to 100 scale) ([2]; Postemergence, 31 g ai/ha) | Plant response rating (0 to 100 scale) ([2]; Postemergence, 125 g ai/ha) | Plant response rating (0 to 100 scale) ([2]; Preemergence, 31 g ai/ha) | Plant response rating (0 to 100 scale) ([2]; Preemergence, 125 g ai/ha) | Plant response rating, Chamomile ([3]; 16 g ai/ha) | Plant response rating, Chamomile ([3]; 31 g ai/ha) | Plant response rating, Chamomile ([3]; 62 g ai/ha) | Plant response rating, Chamomile ([3]; 125 g ai/ha) | Plant response rating (0 to 100 scale) ([4]; Postemergence, 31 g ai/ha) | Plant response rating (0 to 100 scale) ([4]; Postemergence, 125 g ai/ha) | Plant response rating (0 to 100 scale) ([4]; Preemergence, 31 g ai/ha) | Plant response rating (0 to 100 scale) ([4]; Preemergence, 125 g ai/ha) | Plant response rating (0 to 100 scale) ([5]; 125 g ai/ha) | Plant response rating (0 to 100 scale) ([6]; 125 g ai/ha) | Plant response rating (0 to 100 scale) ([7]; 125 g ai/ha) | Plant response rating (0 to 100 scale) ([8]; 125 g ai/ha) | also measured
Cc1ccc2ccc(Cl)cc2c1-c1c(O)c(Cl)nn(C)c1=O [Cpd. No. 22] | 0 | 10 | 100 | 100 | 100 | 100 | 90 | 100 |  |  |  |  |  |  |  |  |  |  |  |  | 
Cc1ccc2ccc(C)c(-c3c(O)c(Cl)nn(C)c3=O)c2c1 [Cpd. No. 20, 6-chloro-4-(2,7-dimethyl-1-naphthalenyl)-5-hydroxy-2-methyl-3(2H)-pyridazinone] | 30 | 30 | 20 | 30 |  |  |  |  | 95 | 98 | 100 | 100 | 80 | 100 | 80 | 100 | 5 | 43 | 95 | 50 | Plant response rating (0 to 100 scale) ([5]; 31 g ai/ha): 0; Plant response rating (0 to 100 scale) ([5]; 62 g ai/ha): 0; Plant response rating (0 to 100 scale) ([5]; 250 g ai/ha): 23; Plant response rating (0 to 100 scale) ([6]; 31 g ai/ha): 0; Plant response rating (0 to 100 scale) ([6]; 62 g ai/ha): 0; Plant response rating (0 to 100 scale) ([6]; 250 g ai/ha): 65; Plant response rating (0 to 100 scale) ([7]; 31 g ai/ha): 10; Plant response rating (0 to 100 scale) ([7]; 62 g ai/ha): 90; Plant response rating (0 to 100 scale) ([7]; 250 g ai/ha): 99; Plant response rating (0 to 100 scale) ([8]; 31 g ai/ha): 0; Plant response rating (0 to 100 scale) ([8]; 62 g ai/ha): 35; Plant response rating (0 to 100 scale) ([8]; 250 g ai/ha): 73; Plant response rating (0 to 100 scale) ([9]; 31 g ai/ha): 0; Plant response rating (0 to 100 scale) ([9]; 62 g ai/ha): 0; Plant response rating (0 to 100 scale) ([9]; 125 g ai/ha): 0; Plant response rating (0 to 100 scale) ([9]; 250 g ai/ha): 0
Cc1cc(Cl)c2ccccc2c1-c1c(O)c(Cl)nn(C)c1=O [Cpd. No. 65] | 30 | 50 | 80 | 90 |  |  |  |  | 99 | 100 | 100 | 100 | 100 | 100 | 100 | 100 | 0 | 60 | 100 | 55 | Plant response rating (0 to 100 scale) ([5]; 64 g ai/ha): 0; Plant response rating (0 to 100 scale) ([6]; 64 g ai/ha): 10; Plant response rating (0 to 100 scale) ([7]; 64 g ai/ha): 100; Plant response rating (0 to 100 scale) ([8]; 64 g ai/ha): 20; Plant response rating (0 to 100 scale) ([9]; 64 g ai/ha): 0; Plant response rating (0 to 100 scale) ([9]; 125 g ai/ha): 15
Cc1ccc2ccc(F)cc2c1-c1c(O)c(Cl)nn(C)c1=O [Cpd. No. 21] | 10 | 20 | 50 | 80 | 90 | 100 | 70 | 100 |  |  |  |  |  |  |  |  |  |  |  |  | 
